In ChEMBL document CHEMBL5303711, “ECBD screening data for assay EOS300108” (2023) one finds CC50 data, which are given here for 64 compounds.

Structures can show the parent of a compound that is named as a salt. Activity calls are given as the source filed them. How the calls were made is not given here.

The data set can be described thus: Cytotoxicity activity against human HepG2 cells assessed by CellTiter-Glo luminescent cell viability assay. In kind it is toxicity, cell-based. On the set-up: assay stage confirmatory assay, source tissue liver. The note with it: HepG2 cells, read-out: IC50 relative.
In the case of `COC[C@H](NC(=O)c1cnc(C)s1)C(=O)N[C@@H](COC)C(=O)N[C@@H](Cc1ccccc1)C(=O)[C@@]1(C)CO1` [OPROZOMIB], the CC50 is 0.1 µM (active).

Regarding `CC(C)Oc1ccc(-c2nc(-c3cccc4c3CC[C@@H]4NCCO)no2)cc1C#N` [OZANIMOD], the CC50 is 3.4 µM (active).

Regarding `C=CCc1cccc(/C=N/NC(=O)CN2CCN(Cc3ccccc3)CC2)c1O` [PAC-1], the CC50 is 6.3 µM (active).

Regarding `COc1ccc(Cc2nccc3cc(OC)c(OC)cc23)cc1OC` [PAPAVERINE], the CC50 was 12.8 µM (active).

Turning to `Fc1ccc([C@@H]2CCNC[C@H]2COc2ccc3c(c2)OCO3)cc1` [PAROXETINE HYDROCHLORIDE], the CC50 is 4.1 µM (active).

For `O=[N+]([O-])c1ccc(-c2nc(-c3ccncc3)c(-c3ccc(F)cc3)[nH]2)cc1` [PD-169316], the CC50 was 50 µM (inactive).

For `CCOc1cc2ncc(C#N)c(Nc3ccc(F)c(Cl)c3)c2cc1NC(=O)/C=C/CN(C)C` [PELITINIB], the CC50 is 1.8 µM (active).

Take `N=C(N)c1ccc(OCCCCCOc2ccc(C(=N)N)cc2)cc1` [PENTAMIDINE ISETHIONATE]: the CC50 is 3.4 µM (active).

For the compound `OCCN1CCN(CCCN2c3ccccc3Sc3ccc(Cl)cc32)CC1` [PERPHENAZINE], the CC50 was 3.4 µM (active).

As to `FC(F)(F)c1ccc(CNc2ccc(Cc3c[nH]c4ncc(Cl)cc34)cn2)cn1` [PEXIDARTINIB], the CC50 is 5.2 µM (active).

As to `Cc1ccc(-n2nc(C(C)(C)C)cc2NC(=O)NCc2cc(F)ccc2Oc2ccc3c(cnn3CCO)c2)cc1` [PEXMETINIB], the CC50 was 2.4 µM (active).

Consider `Cc1nc(Nc2n[nH]c3c2CN(C(=O)N[C@H](CN(C)C)c2ccccc2)C3(C)C)c2sccc2n1` [PF-03758309], for which the CC50 was 0.4 µM (active).

As to `COc1ccc(-c2cc3c(C)nc(N)nc3n([C@H]3CC[C@H](OCCO)CC3)c2=O)cn1` [PF-04691502], the CC50 is 0.6 µM (active).

Take `CC(C)CC(=O)Nc1[nH]nc2c1CN(C(=O)C1CCN(C)CC1)C2(C)C` [PHA-793887]: the CC50 is 1 µM (active).

Turning to `CS(=O)(=O)N1CCN(Cc2cc3nc(-c4cccc5[nH]ncc45)nc(N4CCOCC4)c3s2)CC1` [PICTILISIB], the CC50 was 0.9 µM (active).

For `O=C(NC[C@H](O)CO)c1ccncc1Nc1ccc(I)cc1F` [PIMASERTIB], the CC50 is < 0.1 µM (active).

`O=c1[nH]c2ccccc2n1C1CCN(CCCC(c2ccc(F)cc2)c2ccc(F)cc2)CC1` [PIMOZIDE]: the CC50 was 4.6 µM (active).

On to `O=C(c1c(F)ccc(NS(=O)(=O)N2CC[C@@H](F)C2)c1F)c1c[nH]c2ncc(-c3cnc(C4CC4)nc3)cc12` [PLIXORAFENIB], for which the CC50 was 5.4 µM (active).

For `Cc1ccc(C(=O)Nc2ccc(CN3CCN(C)CC3)c(C(F)(F)F)c2)cc1C#Cc1cnc2cccnn12` [PONATINIB], the CC50 was 0.3 µM (active).

Consider `CC[C@@H]([C@H](C)O)n1ncn(-c2ccc(N3CCN(c4ccc(OC[C@@H]5CO[C@@](Cn6cncn6)(c6ccc(F)cc6F)C5)cc4)CC3)cc2)c1=O` [POSACONAZOLE], for which the CC50 was 19.6 µM (inactive).

On to `C=CC(=O)N1CCC(Oc2cc3c(Nc4ccc(Cl)c(Cl)c4F)ncnc3cc2OC)CC1` [POZIOTINIB], for which the CC50 was 18.7 µM (inactive).

Consider `C#CCC(Cc1cnc2nc(N)nc(N)c2n1)c1ccc(C(=O)N[C@@H](CCC(=O)O)C(=O)O)cc1` (some centres undefined) [PRALATREXATE], for which the CC50 is < 0.1 µM (active).

`CO[C@]1(C(=O)N[C@@H](C)c2ccc(-n3cc(F)cn3)nc2)CC[C@H](c2nc(C)cc(Nc3cc(C)[nH]n3)n2)CC1` [PRALSETINIB]: the CC50 is 9.3 µM (active).

For the compound `COc1cc2nc(N3CCN(C(=O)c4ccco4)CC3)nc(N)c2cc1OC` [PRAZOSIN HYDROCHLORIDE], the CC50 was 6.6 µM (active).

Take `C=CC(=O)N1CCN(CCCn2c(=O)c(-c3c(Cl)c(OC)cc(OC)c3Cl)cc3cnc(NC)nc32)CC1` [PRN-1371]: the CC50 was 9.6 µM (active).

As to `O=C(CCN1CCC(c2ccccc2)C1)c1ccc2c(c1)OCCO2` (centres undefined) [PROROXAN HYDROCHLORIDE], the CC50 was 8.4 µM (active).

With `CNCCCC1c2ccccc2C=Cc2ccccc21` [PROTRIPTYLINE HYDROCHLORIDE], the CC50 was 8.9 µM (active).

With `CC(C)[C@H](CO)Nc1nc(Nc2cccc(Cl)c2)c2ncn(C(C)C)c2n1` [PURVALANOLA], the CC50 is 14.4 µM (active).

Take `CC(C)(C)c1ccc(CSc2cnn(C(C)(C)C)c(=O)c2Cl)cc1` [PYRIDABEN]: the CC50 is 0.3 µM (active).

Take `CCc1nc(N)nc(N)c1-c1ccc(Cl)cc1` [PYRIMETHAMINE]: the CC50 was 6 µM (active).

Turning to `[O-][n+]1ccccc1S` [PYRITHIONE], the CC50 is 1.1 µM (active).

Turning to `CCN(CC)CCCC(C)Nc1c2ccc(Cl)cc2nc2ccc(OC)cc12` (centres undefined) [QUINACRINE DIHYDROCHLORIDE], the CC50 was 1.1 µM (active).

With `Cc1cnc(NC(=O)Nc2cc(Br)c(C)cc2OC[C@@H]2CNCCO2)cn1` [RABUSERTIB], the CC50 was 5.9 µM (active).

As for `Cn1c(Nc2ccc(C(F)(F)F)cc2)nc2cc(Oc3ccnc(-c4ncc(C(F)(F)F)[nH]4)c3)ccc21` [RAF-265], the CC50 was 1.5 µM (active).

Take `CC(C)(C)Cn1c(N)nc2ccc(-c3[nH]c(C(C)(C)C)nc3-c3ccc(F)cc3)nc21` [RALIMETINIB MESYLATE]: the CC50 is 13.2 µM (active).

Regarding `Cn1nccc1Nc1nccc(-c2ccn([C@H](CO)c3ccc(Cl)c(F)c3)c(=O)c2)n1` [RAVOXERTINIB], the CC50 is 0.7 µM (active).

Consider `COc1cc(F)c(F)c(Nc2ccc(I)cc2F)c1NS(=O)(=O)C1(C[C@H](O)CO)CC1` [REFAMETINIB], for which the CC50 was 0.1 µM (active).

With `CNC(=O)c1cc(Oc2ccc(NC(=O)Nc3ccc(Cl)c(C(F)(F)F)c3)c(F)c2)ccn1` [REGORAFENIB], the CC50 was 1.7 µM (active).

With `C[C@H]1CNC(=O)c2cnn3ccc(nc23)N[C@H](C)c2cc(F)ccc2O1` [REPOTRECTINIB], the CC50 is 3.7 µM (active).

In the case of `COC(=O)[C@H]1[C@H]2C[C@@H]3c4[nH]c5cc(OC)ccc5c4CCN3C[C@H]2C[C@@H](OC(=O)c2cc(OC)c(OC)c(OC)c2)[C@@H]1OC` [RESERPINE], the CC50 was 11.8 µM (active).

Regarding `CN(CCN1CCC(OC(=O)Nc2ccccc2-c2ccccc2)CC1)C(=O)c1ccc(CN2CCC(C(N)=O)CC2)cc1` [REVEFENACIN], the CC50 is 13.2 µM (active).

With `COc1ccc(F)c(F)c1C(=O)c1cnc(NC2CCN(S(C)(=O)=O)CC2)nc1N` [RG-547], the CC50 is 0.5 µM (active).

For `COCCN1CCN(Cc2ccc(-c3n[nH]c4c3C(=O)c3c(NC(=O)NN5CCOCC5)cccc3-4)cc2)CC1` [RGB-286638], the CC50 is 0.2 µM (active).

For `O=C(CCCCCCNC(=O)c1cnc(N(c2ccccc2)c2ccccc2)nc1)NO` [RICOLINOSTAT], the CC50 is 3.5 µM (active).

As to `Cc1cc(/C=C/C#N)cc(C)c1Nc1ccnc(Nc2ccc(C#N)cc2)n1` [RILPIVIRINE], the CC50 is 11 µM (inactive).

Turning to `CCOc1cc(C(C)(C)C)ccc1C1=N[C@@](C)(c2ccc(Cl)cc2)[C@@](C)(c2ccc(Cl)cc2)N1C(=O)N1CCN(CCCS(C)(=O)=O)CC1` [RO-5045337], the CC50 was 6.3 µM (active).

In the case of `C[C@@H](OC[C@@]1(c2ccccc2)CC[C@]2(CCC(=O)N2)CN1)c1cc(C(F)(F)F)cc(C(F)(F)F)c1` [ROLAPITANT], the CC50 was 8.9 µM (active).

Regarding `C=C(C)[C@H]1Cc2c(ccc3c2O[C@@H]2COc4cc(OC)c(OC)cc4[C@@H]2C3=O)O1` [ROTENONE], the CC50 was 0.5 µM (active).

`O=C(N/N=C/c1ccccc1O)c1ccncc1` [SALINAZID]: the CC50 was 9.5 µM (active).

On to `OCc1cc(C(O)CNCCCCCCOCCCCc2ccccc2)ccc1O` (centres undefined) [SALMETEROL], for which the CC50 was 6.6 µM (active).

As to `CC(C)n1nc(-c2ccc3oc(N)nc3c2)c2c(N)ncnc21` [SAPANISERTIB], the CC50 was 0.2 µM (active).

Turning to `Cn1cc(-c2cnn3c(N)c(Br)c([C@@H]4CCCNC4)nc23)cn1` [SCH-900776], the CC50 is 10.9 µM (active).

As to `CC[C@H](CO)Nc1nc(NCc2ccccc2)c2ncn(C(C)C)c2n1` [SELICICLIB], the CC50 was 7.8 µM (active).

Take `Cc1cc(F)c(C(=O)Nc2cccc(-c3nncn3C(C)C)n2)cc1-n1cnc(C2CC2)c1` [SELONSERTIB]: the CC50 is 12.3 µM (active).

As for `O=C1NCCN1CCN1CCC(c2cn(-c3ccc(F)cc3)c3ccc(Cl)cc23)CC1` [SERTINDOLE], the CC50 was 2.7 µM (active).

Take `CN1CCC(CNc2ccc3ncc(-c4cccc(OC(F)(F)F)c4)n3n2)CC1` [SGI-1776]: the CC50 is 1.5 µM (active).

Consider `CCC(C)(C)C(=O)O[C@H]1C[C@@H](C)C=C2C=C[C@H](C)[C@H](CC[C@@H]3C[C@@H](O)CC(=O)O3)[C@H]21` [SIMVASTATIN], for which the CC50 is 17.1 µM (inactive).

In the case of `CO[C@H]1C[C@@H]2CC[C@@H](C)[C@@](O)(O2)C(=O)C(=O)N2CCCC[C@H]2C(=O)O[C@H]([C@H](C)C[C@@H]2CC[C@@H](O)[C@H](OC)C2)CC(=O)[C@H](C)/C=C(\C)[C@@H](O)[C@@H](OC)C(=O)[C@H](C)C[C@H](C)/C=C/C=C/C=C/1C` [SIROLIMUS], the CC50 was 17.5 µM (inactive).

With `COCCNCc1ccc(-c2cc3nccc(Oc4ccc(NC(=O)C5(C(=O)Nc6ccc(F)cc6)CC5)cc4F)c3s2)nc1` [SITRAVATINIB], the CC50 was 4.6 µM (active).

For the compound `O=C(Nc1cccc(Cl)c1)Nc1ncc(CCNc2ncnc3ccsc23)s1` [SNS-314 MESYLATE], the CC50 is 10.1 µM (active).

Regarding `CC1(C)CC(=O)c2c(C(F)(F)F)nn(-c3ccc(C(N)=O)c(N[C@H]4CC[C@H](O)CC4)c3)c2C1` [SNX-2112], the CC50 is < 0.1 µM (active).

With `Cc1c(C(=O)Nc2ccc(N3C[C@@H](C)O[C@@H](C)C3)nc2)cccc1-c1ccc(OC(F)(F)F)cc1` [SONIDEGIB], the CC50 was 37.3 µM (inactive).

`C=CC(=O)Nc1cccc(Nc2nc(Nc3ccc(OCCOC)cc3)ncc2F)c1` [SPEBRUTINIB]: the CC50 is 1.3 µM (active).

For the compound `CCCCCCCCCCCCC/C=C/[C@@H](O)[C@@H](N)CO` [SPHINGOSINE], the CC50 was 11.2 µM (active).
